Measurements reported in ChEMBL document CHEMBL5715954, “Silencing c-Myc translation as a therapeutic strategy through targeting PI3Kδ and CK1ε in hematological malignancies” (Blood, 2017).
Calls of active or inactive are those of the source. The rule behind the calls is not given here.

Key:
[1] = target: Myc proto-oncogene protein (Homo sapiens) (UniProt P01106); assay: Inhibition of c-Myc in human LY10 cells assessed as reduction in E2F1 expression at 3 uM incubated for 24 hrs by Western blot analysis; type: cell-based
LY7 [2] = assay: Induction of apoptosis in human LY7 cells assessed as increase in cleaved-PARP expression at 3 uM measured after 24 hrs in presence of bortezomib by Western blot analysis; type: functional, cell-based
OCI-Ly10 [3] = assay: Induction of apoptosis in human LY10 cells assessed as increase in cleaved-PARP expression at 3 uM measured after 24 hrs in presence of carfilzomib by Western blot analysis; type: functional, cell-based
mTORC1 (Homo sapiens) [4] = target: T1, mTORC1 (Homo sapiens) (UniProt P42345+Q8N122+Q9BVC4); assay: Inhibition of mTORC1 in human LY7 cells assessed as reduction in 4E-BP1 phosphorylation at 3 uM measured after 24 hrs by Western blot analysis; type: cell-based
mTORC1 (Homo sapiens) [5] = target: T1, mTORC1 (Homo sapiens); assay: Inhibition of mTORC1 in human LY10 cells assessed as reduction in c-Myc expression at 3 uM measured after 24 hrs in presence of bortezomib by Western blot analysis; type: cell-based
mTORC1 (Homo sapiens) [6] = target: T1, mTORC1 (Homo sapiens); assay: Inhibition of mTORC1 in human SLL cells assessed as reduction in 4E-BP1 phosphorylation at 5 uM measured after 24 hrs by Western blot analysis; type: cell-based
mTORC1 (Homo sapiens) [7] = target: T1, mTORC1 (Homo sapiens); assay: Inhibition of mTORC1 in human LY10 cells assessed as reduction in c-Myc mRNA expression at 3 uM measured after 24 hrs in presence of carfilzomib; type: cell-based
mTORC1 (Homo sapiens) [8] = target: T1, mTORC1 (Homo sapiens); assay: Inhibition of mTORC1 in human CLL cells assessed as reduction in c-Myc expression at 5 uM measured after 24 hrs by Western blot analysis; type: cell-based; conditions: CLL cell
H9 = assay: Cytotoxicity against human H9 cells assessed as reduction in cell viability measured after 48 hrs by cell titer-glo assay; type: functional, cell-based
mTORC1 (Homo sapiens) [9] = target: T1, mTORC1 (Homo sapiens); assay: Inhibition of mTORC1 in human CLL cells assessed as reduction in 4E-BP1 phosphorylation at 5 uM measured after 24 hrs by Western blot analysis; type: cell-based; conditions: CLL cell
[10] = target: Myc proto-oncogene protein (Homo sapiens) (UniProt P01106); assay: Inhibition of c-Myc in human LY10 cells assessed as reduction in eIF4B expression at 3 uM incubated for 24 hrs by Western blot analysis; type: cell-based
PF-382 = assay: Induction of apoptosis in human PF-382 cells assessed as increase in cleaved-PARP expression at 5 uM measured after 24 hrs in presence of carfilzomib by Western blot analysis; type: functional, cell-based
LY7 [11] = assay: Cytotoxicity against human LY7 cells assessed as reduction in cell viability measured after 24 hrs by cell titer-glo assay; type: functional, cell-based
OCI-Ly10 [12] = assay: Induction of apoptosis in human LY10 cells assessed as increase in caspase-3/7 activation at 1 to 3 uM measured after 24 hrs in presence of carfilzomib; type: functional, cell-based; conditions: dose 1-3 µM
mTORC1 (Homo sapiens) [13] = target: T1, mTORC1 (Homo sapiens); assay: Inhibition of mTORC1 in human LY10 cells assessed as reduction in c-Myc mRNA expression at 3 uM measured after 24 hrs in presence of bortezomib; type: cell-based
MZL = assay: Induction of apoptosis in human MZL cells assessed as increase in cleaved-PARP expression at 5 uM measured after 24 hrs in presence of carfilzomib by Western blot analysis; type: functional, cell-based
SLL = assay: Induction of apoptosis in human SLL cells assessed as increase in cleaved-PARP expression at 5 uM measured after 24 hrs in presence of carfilzomib by Western blot analysis; type: functional, cell-based
mTORC1 (Homo sapiens) [14] = target: T1, mTORC1 (Homo sapiens); assay: Inhibition of mTORC1 in human PF-382 cells assessed as reduction in c-Myc expression at 5 uM measured after 24 hrs by Western blot analysis; type: cell-based
[15] = target: Myc proto-oncogene protein (Homo sapiens) (UniProt P01106); assay: Inhibition of c-Myc in human LY7 cells assessed as reduction in E2F1 expression at 3 uM incubated for 24 hrs by Western blot analysis; type: cell-based
[16] = target: Myc proto-oncogene protein (Homo sapiens) (UniProt P01106); assay: Inhibition of c-Myc in human LY7 cells assessed as reduction in eIF4B expression at 3 uM incubated for 24 hrs by Western blot analysis; type: cell-based
mTORC1 (Homo sapiens) [17] = target: T1, mTORC1 (Homo sapiens); assay: Inhibition of mTORC1 in human PF-382 cells assessed as reduction in 4E-BP1 phosphorylation at 5 uM measured after 24 hrs by Western blot analysis; type: cell-based
mTORC1 (Homo sapiens) [18] = target: T1, mTORC1 (Homo sapiens); assay: Inhibition of mTORC1 in human LY10 cells assessed as reduction in c-Myc expression at 3 uM measured after 24 hrs by Western blot analysis; type: cell-based
mTORC1 (Homo sapiens) [19] = target: T1, mTORC1 (Homo sapiens); assay: Inhibition of mTORC1 in human LY10 cells assessed as reduction in c-Myc expression at 3 uM measured after 24 hrs in presence of carfilzomib by Western blot analysis; type: cell-based
mTORC1 (Homo sapiens) [20] = target: T1, mTORC1 (Homo sapiens); assay: Inhibition of mTORC1 in human SLL cells assessed as reduction in c-Myc expression at 5 uM measured after 24 hrs by Western blot analysis; type: cell-based
Z-138 = assay: Cytotoxicity against human Z138 cells assessed as reduction in cell viability measured after 48 hrs by cell titer-glo assay; type: functional, cell-based
JeKo-1 = assay: Cytotoxicity against human JeKo-1 cells assessed as reduction in cell viability measured after 24 hrs by cell titer-glo assay; type: functional, cell-based
OCI-Ly10 [21] = assay: Cytotoxicity against human LY10 cells assessed as reduction in cell viability measured after 24 hrs by cell titer-glo assay; type: functional, cell-based
[22] = target: T2, Casein kinase I isoform epsilon (Homo sapiens, UniProt P49674); assay: Inhibition of CK1epsilon in human LY7 cells assessed as reduction in CK1epsilon autophosphorylation at 25 uM preincubated for 1 hr followed by addition of PP2A inhibitor calyculin A and measured after 15 to 60 mins by Western blot analysis; type: cell-based; conditions: time lower 75.0 min, time upper […]
Rec1 = assay: Cytotoxicity against human REC1 cells assessed as reduction in cell viability measured after 24 hrs by cell titer-glo assay; type: functional, cell-based
mTORC1 (Homo sapiens) [23] = target: T1, mTORC1 (Homo sapiens); assay: Inhibition of mTORC1 in human LY7 cells assessed as reduction in c-Myc expression at 3 uM measured after 24 hrs by Western blot analysis; type: cell-based
[24] = target: T2, Casein kinase I isoform epsilon; assay: Inhibition of CK1epsilon in human LY7 cells assessed as reduction in CK1epsilon autophosphorylation at 10 to 25 uM preincubated for 1 hr followed by addition of PP2A inhibitor calyculin A and measured after 15 to 60 mins by Western blot analysis; type: cell-based; conditions: dose 10-25 µM, time lower 75.0 min, time upper […]
LY7 [25] = assay: Inhibition of PI3Kdelta/CK1epsilon in human LY7 cells assessed as reduction in 4E-BP1 phosphorylation at 25 uM incubated for 24 hrs by Western blot analysis; type: cell-based
[26] = target: Myc proto-oncogene protein (Homo sapiens) (UniProt P01106); assay: Inhibition of c-Myc in human LY10 cells assessed as reduction in E2F1 expression at 3 uM incubated for 24 hrs in presence of carfilzomib by Western blot analysis; type: cell-based
LY7 [27] = assay: Inhibition of PI3Kdelta/CK1epsilon in human LY7 cells assessed as reduction in c-Myc expression at 15 to 50 uM measured after 24 hrs by Western blot analysis; type: cell-based; conditions: dose 15-50 µM
OCI-Ly7 = assay: Cytotoxicity against human OCILY7 cells transfected with empty vector assessed as reduction in cell viability at 3 to 5 uM incubated for 24 hrs in presence of carfilzomib by cell-titer glo assay; type: functional, cell-based; conditions: dose 3-5 µM
OCILY7 = assay: Inhibition of PI3Kdelta/CK1epsilon in human OCILY7 cells transfected with an empty vector assessed as reduction in c-Myc expression at 7.5 to 25 uM measured after 24 hrs by Western blot analysis; type: cell-based; conditions: dose 7.5-25 µM

Sequence of Myc proto-oncogene protein (Homo sapiens) (P01106 whole entry): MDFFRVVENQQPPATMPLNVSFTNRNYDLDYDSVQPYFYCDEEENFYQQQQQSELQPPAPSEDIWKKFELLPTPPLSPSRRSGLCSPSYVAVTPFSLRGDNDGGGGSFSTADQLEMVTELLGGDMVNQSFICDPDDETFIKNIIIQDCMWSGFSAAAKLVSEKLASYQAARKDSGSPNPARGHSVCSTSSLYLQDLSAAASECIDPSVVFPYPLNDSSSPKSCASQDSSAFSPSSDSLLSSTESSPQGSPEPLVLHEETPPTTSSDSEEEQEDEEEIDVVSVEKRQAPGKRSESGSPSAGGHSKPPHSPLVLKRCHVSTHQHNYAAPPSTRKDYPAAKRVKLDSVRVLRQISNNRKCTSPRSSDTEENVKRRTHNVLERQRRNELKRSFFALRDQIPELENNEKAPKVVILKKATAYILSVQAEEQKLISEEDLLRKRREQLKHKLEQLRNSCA
T1 sequence (Q8N122 whole entry, looked up, other chains not shown): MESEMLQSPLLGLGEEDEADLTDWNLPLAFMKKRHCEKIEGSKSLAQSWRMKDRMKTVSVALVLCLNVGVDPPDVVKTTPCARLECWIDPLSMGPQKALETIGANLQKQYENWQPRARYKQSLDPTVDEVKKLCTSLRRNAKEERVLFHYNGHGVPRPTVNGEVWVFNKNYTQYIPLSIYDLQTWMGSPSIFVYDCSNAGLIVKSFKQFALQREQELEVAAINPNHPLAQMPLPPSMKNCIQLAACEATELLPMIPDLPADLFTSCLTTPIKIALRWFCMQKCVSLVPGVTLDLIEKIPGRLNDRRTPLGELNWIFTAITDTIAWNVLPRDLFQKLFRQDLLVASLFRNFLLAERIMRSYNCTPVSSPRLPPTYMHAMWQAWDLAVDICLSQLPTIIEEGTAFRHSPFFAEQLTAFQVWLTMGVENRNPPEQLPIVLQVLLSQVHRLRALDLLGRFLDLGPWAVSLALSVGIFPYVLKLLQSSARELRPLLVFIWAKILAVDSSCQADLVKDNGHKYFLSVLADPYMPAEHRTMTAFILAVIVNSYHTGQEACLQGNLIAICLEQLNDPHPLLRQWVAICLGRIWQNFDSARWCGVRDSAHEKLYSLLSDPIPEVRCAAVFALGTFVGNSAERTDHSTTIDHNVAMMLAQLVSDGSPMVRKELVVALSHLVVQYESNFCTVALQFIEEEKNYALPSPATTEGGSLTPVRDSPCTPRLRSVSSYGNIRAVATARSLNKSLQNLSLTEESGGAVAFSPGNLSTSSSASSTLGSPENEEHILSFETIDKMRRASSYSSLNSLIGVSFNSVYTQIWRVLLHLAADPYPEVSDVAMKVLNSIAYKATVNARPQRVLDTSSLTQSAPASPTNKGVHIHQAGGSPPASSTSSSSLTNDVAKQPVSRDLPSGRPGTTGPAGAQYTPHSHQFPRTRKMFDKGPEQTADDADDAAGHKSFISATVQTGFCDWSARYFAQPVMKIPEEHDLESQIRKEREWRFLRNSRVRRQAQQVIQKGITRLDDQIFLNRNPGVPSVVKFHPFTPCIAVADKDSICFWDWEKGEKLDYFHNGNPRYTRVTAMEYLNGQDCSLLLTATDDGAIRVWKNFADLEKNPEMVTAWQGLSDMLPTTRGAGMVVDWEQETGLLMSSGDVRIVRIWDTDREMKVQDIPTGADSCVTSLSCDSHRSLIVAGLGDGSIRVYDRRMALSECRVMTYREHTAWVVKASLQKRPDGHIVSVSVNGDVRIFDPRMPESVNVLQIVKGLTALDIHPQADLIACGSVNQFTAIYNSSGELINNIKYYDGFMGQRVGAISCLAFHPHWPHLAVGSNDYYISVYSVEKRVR
T1 sequence (Q9BVC4 whole entry, looked up, other chains not shown): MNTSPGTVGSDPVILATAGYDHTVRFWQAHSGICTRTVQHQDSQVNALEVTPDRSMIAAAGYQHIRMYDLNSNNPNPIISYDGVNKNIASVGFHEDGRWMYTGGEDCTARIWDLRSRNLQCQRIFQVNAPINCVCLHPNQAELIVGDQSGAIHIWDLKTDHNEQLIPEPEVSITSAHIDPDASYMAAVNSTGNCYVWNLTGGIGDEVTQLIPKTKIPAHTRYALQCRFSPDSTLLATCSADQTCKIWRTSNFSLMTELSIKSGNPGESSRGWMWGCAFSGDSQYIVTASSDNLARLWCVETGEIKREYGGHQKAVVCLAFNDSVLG
T2 sequence (P49674 whole entry, looked up, canonical isoform): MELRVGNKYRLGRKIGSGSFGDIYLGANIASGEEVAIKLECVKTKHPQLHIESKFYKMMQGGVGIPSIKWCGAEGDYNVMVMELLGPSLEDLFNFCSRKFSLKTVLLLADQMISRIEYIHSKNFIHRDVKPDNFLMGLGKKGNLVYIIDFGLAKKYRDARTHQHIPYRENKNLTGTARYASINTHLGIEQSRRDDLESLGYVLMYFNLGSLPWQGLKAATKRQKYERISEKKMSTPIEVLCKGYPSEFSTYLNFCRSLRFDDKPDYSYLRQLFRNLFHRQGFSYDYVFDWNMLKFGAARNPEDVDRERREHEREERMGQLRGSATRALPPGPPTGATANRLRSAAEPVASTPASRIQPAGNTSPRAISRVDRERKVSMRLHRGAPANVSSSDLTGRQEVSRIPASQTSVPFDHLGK

SMILES | inhibition [1] | Activity (OCI-Ly10 [3]) | inhibition (mTORC1 (Homo sapiens) [4]) | inhibition (mTORC1 (Homo sapiens) [5]) | inhibition (mTORC1 (Homo sapiens) [6]) | inhibition (mTORC1 (Homo sapiens) [7]) | inhibition (mTORC1 (Homo sapiens) [8]) | Activity (H9) | inhibition (mTORC1 (Homo sapiens) [9]) | inhibition [10] | Activity (PF-382) | Activity (LY7 [11]) | Activity (OCI-Ly10 [12]) | inhibition (mTORC1 (Homo sapiens) [13]) | Activity (MZL) | Activity (SLL) | inhibition (mTORC1 (Homo sapiens) [14]) | inhibition [15] | inhibition [16] | inhibition (mTORC1 (Homo sapiens) [17]) | also measured
CC[C@H](Nc1ncnc2[nH]cnc12)c1nc2cccc(F)c2c(=O)n1-c1ccccc1 | inactive | Active | inactive | inactive | inactive | inactive | inactive | Active | inactive | inactive | Active | Active | Active | inactive | Active | Active | inactive | inactive | inactive | inactive | Activity (LY7 [2]): Active; inhibition (mTORC1 (Homo sapiens) [18]): inactive; inhibition (mTORC1 (Homo sapiens) [19]): Active; inhibition (mTORC1 (Homo sapiens) [20]): inactive; Activity (Z-138): Active; Activity (JeKo-1): Active; Activity (OCI-Ly10 [21]): Active; inhibition [22]: inactive; Activity (Rec1): Active; inhibition (mTORC1 (Homo sapiens) [23]): inactive
CC(C)Oc1ccc(-c2nn([C@@H](C)c3oc4ccc(F)cc4c(=O)c3-c3cccc(F)c3)c3ncnc(N)c23)cc1F [UMBRALISIB] | inactive | Active | inactive | Active | inactive | inactive | inactive | Active | inactive | inactive | Active | Active | Active | inactive | Active | Active | inactive | inactive | inactive | inactive | inhibition [24]: Active; inhibition (LY7 [25]): Active; inhibition [26]: Active; inhibition (LY7 [27]): Active; Activity (OCI-Ly7): Active; inhibition (mTORC1 (Homo sapiens) [18]): inactive; inhibition (mTORC1 (Homo sapiens) [19]): Active; inhibition (mTORC1 (Homo sapiens) [20]): inactive; inhibition (OCILY7): Active; Activity (Z-138): Active; Activity (JeKo-1): Active; Activity (OCI-Ly10 [21]): Active; Activity (Rec1): Active; inhibition (mTORC1 (Homo sapiens) [23]): inactive
